The structures appear in SMILES notation.

The source of these data is patent US20240358808A1, “VACCINE FOR SARS-COV-2” (FLOW PHARMA, INC., priority 2021, published 2024).

This experiment has as its target DRB3*0202 (Homo sapiens, UniProt P01903+P79483, A212P/D57E/F66Y/L67A/R103Q/R218S/R40L/S89Y/T80R/V86D/Y55F/Y59H). Nature of the experiment: peptide affinity binding assay (peptide-MHC binding).

Sequence of DRB3*0202 (P01903 26-254 limits assumed): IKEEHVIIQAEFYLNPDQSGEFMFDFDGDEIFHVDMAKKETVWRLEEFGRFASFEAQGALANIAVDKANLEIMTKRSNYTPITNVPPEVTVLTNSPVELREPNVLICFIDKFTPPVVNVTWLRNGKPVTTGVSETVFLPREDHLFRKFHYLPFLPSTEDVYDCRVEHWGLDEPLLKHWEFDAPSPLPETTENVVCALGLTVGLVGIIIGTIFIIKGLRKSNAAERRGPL
Sequence of DRB3*0202 (P79483 30-266 R40L/Y55F/D57E/Y59H/F66Y/L67A/T80R/V86D/S89Y/R103Q/A212P/R218S limits assumed): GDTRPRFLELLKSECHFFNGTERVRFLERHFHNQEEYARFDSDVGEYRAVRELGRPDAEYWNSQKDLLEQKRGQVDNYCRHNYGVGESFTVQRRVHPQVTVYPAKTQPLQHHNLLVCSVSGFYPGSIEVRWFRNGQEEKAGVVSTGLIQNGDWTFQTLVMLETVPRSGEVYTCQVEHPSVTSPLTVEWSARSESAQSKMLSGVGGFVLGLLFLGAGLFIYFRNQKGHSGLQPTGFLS

`CC(C)C[C@H](NC(=O)[C@@H](NC(=O)[C@H](Cc1c[nH]c2ccccc12)NC(=O)[C@H](C)NC(=O)[C@H](C)NC(=O)[C@@H](NC(=O)[C@H](Cc1ccccc1)NC(=O)[C@H](CCCCN)NC(=O)[C@H](C)N)C(C)C)[C@@H](C)O)C(=O)N[C@@H](CCCCN)C(=O)N[C@@H](C)C(=O)N[C@@H](C)C(=O)N[C@@H](C)C(=O)O` [PADRE]: the “peptide-MHC binding affinity before and after the addition of an infrared fluorophore ligand” value is on record as “essentially unchanged”.
